Series [1] relates to recombinant NL4-3 virus (nef section replaced with Renilla luciferase gene) in MT-2 cells. Nature of the series: HIV cell culture assay (antiviral activity, luciferase readout). The format is cell-based. To be noted: Renilla, NL43. The protocol:
HIV cell culture assay—MT-2 cells, 293T cells and the proviral DNA clone of NL4-3 virus were obtained from the NIH AIDS Research and Reference Reagent Program. MT-2 cells were propagated in RPMI 1640 media supplemented with 10% heat inactivated fetal bovine serum (FBS), 100 μg/ml penicillin G and up to 100 units/mL streptomycin. The 293T cells were propagated in DMEM media supplemented with 10% heat inactivated FBS, 100 μg/mL penicillin G and 100 μg/mL streptomycin. A recombinant NL4-3 proviral clone, in which a section of the nef gene was replaced with the Renilla luciferase gene, was used to make the reference virus used in these studies. The recombinant virus was prepared through transfection of the recombinant NL4-3 proviral clone into 293T cells using Transit-293 Transfection Reagent from Mirus Bio LLC (Madison, Wis.). Supernatent was harvested after 2-3 days and the amount of virus present was titered in MT-2 cells using luciferase enzyme activity as a marker by measuring luciferase enzyme activity. Luciferase was quantitated using the EnduRen Live Cell Substrate from Promega (Madison, Wis.). Antiviral activities of compounds toward the recombinant virus were quantified by measuring luciferase activity in MT-2 cells infected for 4-5 days with the recombinant virus in the presence of serial dilutions of the compound.
The 50% effective concentration (EC50) was calculated by using the exponential form of the median effect equation where (Fa)=1/[1+(ED50/drug conc.)^m] (Johnson V A, Byington R T. Infectivity Assay. In Techniques in HIV Research. ed. Aldovini A, Walker B D. 71-76. New York: Stockton Press. 1990). Curve fitting and analysis were performed with ActivityBase XE Runner software version 9.1.0.4 using model 203 (ID Business Solutions, LTD, Guildford, UK).

Series [2] can be described thus: Compound cytotoxicity, XTT-based colorimetric assay. The following applies: human; uninfected MT2 cells, day 4, XTT-based colorimetric assay. The class given is cell-based. On the procedure: Compound cytotoxicity and the corresponding CC50 values were determined using the same protocol as described in the antiviral assay except that uninfected cells were used. Cytotoxicity was assessed on day 4 in uninfected MT2 cells by using a XTT (2,3-bis[2-Methoxy-4-nitro-5-sulfophenyl]-2H-tetrazolium-5-carboxyanilide inner salt)-based colorimetric assay (Sigma-Aldrich, St Louis, Mo.).

In general, EC50 refers to the concentration at which the effect is half-maximal. In general, CC50 refers to the concentration giving 50% cytotoxicity. Read a low CC50 as harm at low concentration.

For `Cc1cc(C)nc(-c2cc(=O)n(-c3ccc(Cl)c4c(NS(=O)(=O)C5CC5)nn(CC(F)F)c34)c([C@H](Cc3cc(F)cc(F)c3)NC(=O)Cn3nc(C(F)F)c4c3C(F)(F)[C@@H]3C[C@H]43)n2)n1` (atropisomer, axis not shown; (aR)) [Example 34, N-((S)-1-(1′-(4-chloro-3-(cyclopropanesulfonamido)-1-(2,2-difluoroethyl)-1H-indazol-7-yl)-4,6-dimethyl-6′-oxo-1′,6′-dihydro-[2,4′-bipyrimidin]-2′-yl)-2-(3,5-difluorophenyl)ethyl)-2-((3bS,4aR)-3-(difluoromethyl)-5,5-difluoro-3b,4,4a,5-tetrahydro-1H-cyclopropa[3,4]cyclopenta[1,2-c]pyrazol-1-yl)acetamide], the EC50 in series [1] was 0.24 nM. In series [2], this compound had a CC50 at 4 days of over 100 nM.
Consider `Cn1nc(NS(C)(=O)=O)c2c(Cl)ccc(-n3c([C@H](Cc4cc(F)cc(F)c4)NC(=O)Cn4nc(C(F)F)c5c4C(F)(F)[C@@H]4C[C@H]54)nc(-c4cnc(C(C)(F)F)s4)cc3=O)c21` (atropisomer, axis not shown; (P)) [Example 15, N-((S)-1-((1P)-1-(4-chloro-1-methyl-3-(methylsulfonamido)-1H-indazol-7-yl)-4-(2-(1,1-difluoroethyl)thiazol-5-yl)-6-oxo-1,6-dihydropyrimidin-2-yl)-2-(3,5-difluorophenyl)ethyl)-2-((3bS,4aR)-3-(difluoromethyl)-5,5-difluoro-3b,4,4a,5-tetrahydro-1H-cyclopropa[3,4]cyclopenta[1,2-c]pyrazol-1-yl)acetamide], for which the EC50 in series [1] was 0.59 nM. Also, in series [2], the CC50 at 4 days was over 100 nM.
In the case of `Cn1nc(NS(C)(=O)=O)c2c(Cl)ccc(-n3c([C@H](Cc4cc(F)cc(F)c4)NC(=O)Cn4nc(C(F)F)c5c4C(F)(F)[C@@H]4C[C@H]54)nc(-c4ccccc4)cc3=O)c21` (atropisomer, axis not shown; (aR)) [Example 1, N-((S)-1-(1-(4-chloro-1-methyl-3-(methylsulfonamido)-1H-indazol-7-yl)-6-oxo-4-phenyl-1,6-dihydropyrimidin-2-yl)-2-(3,5-difluorophenyl)ethyl)-2-((3bS,4aR)-3-(difluoromethyl)-5,5-difluoro-3b,4,4a,5-tetrahydro-1H-cyclopropa[3,4]cyclopenta[1,2-c]pyrazol-1-yl)acetamide], the EC50 in series [1] turned out to be 0.72 nM. For the same compound, the CC50 at 4 days in series [2] is over 500 nM.
The matching figures for `O=C(Cn1nc(C(F)F)c2c1C(F)(F)[C@@H]1C[C@H]21)N[C@@H](Cc1cc(F)cc(F)c1)c1nc(-c2ccc(Cl)cn2)cc(=O)n1-c1ccc(Cl)c2c(NS(=O)(=O)C3CC3)nn(CC(F)F)c12` (atropisomer, axis not shown; (P)) [Example 35, N-((S)-1-((1P)-1-(4-chloro-3-(cyclopropanesulfonamido)-1-(2,2-difluoroethyl)-1H-indazol-7-yl)-4-(5-chloropyridin-2-yl)-6-oxo-1,6-dihydropyrimidin-2-yl)-2-(3,5-difluorophenyl)ethyl)-2-((3bS,4aR)-3-(difluoromethyl)-5,5-difluoro-3b,4,4a,5-tetrahydro-1H-cyclopropa[3,4]cyclopenta[1,2-c]pyrazol-1-yl)acetamide]: 0.72 nM and over 100 nM.
The matching figures for `Cc1cc(C)nc(-c2cc(=O)n(-c3ccc(Cl)c4c(NS(C)(=O)=O)nn(C)c34)c([C@H](Cc3cc(F)cc(F)c3)NC(=O)Cn3nc(C(F)F)c4c3C(F)(F)[C@@H]3C[C@H]43)n2)n1` (atropisomer, axis not shown; (aR)) [Example 4, N-((S)-1-((1′P)-1′-(4-chloro-1-methyl-3-(methylsulfonamido)-1H-indazol-7-yl)-4,6-dimethyl-6′-oxo-1′,6′-dihydro-[2,4′-bipyrimidin]-2′-yl)-2-(3,5-difluorophenyl)ethyl)-2-((3bS,4aR)-3-(difluoromethyl)-5,5-difluoro-3b,4,4a,5-tetrahydro-1H-cyclopropa[3,4]cyclopenta[1,2-c]pyrazol-1-yl)acetamide]: 0.044 nM and over 100 nM.
On to `Cc1ccnc(-c2cc(=O)n(-c3ccc(Cl)c4c(NS(C)(=O)=O)nn(C)c34)c([C@H](Cc3cc(F)cc(F)c3)NC(=O)Cn3nc(C(F)F)c4c3C(F)(F)[C@@H]3C[C@H]43)n2)c1` (atropisomer, axis not shown; (P)) [Example 16, N-((S)-1-((1P)-1-(4-chloro-1-methyl-3-(methylsulfonamido)-1H-indazol-7-yl)-4-(4-methylpyridin-2-yl)-6-oxo-1,6-dihydropyrimidin-2-yl)-2-(3,5-difluorophenyl)ethyl)-2-((3bS,4aR)-3-(difluoromethyl)-5,5-difluoro-3b,4,4a,5-tetrahydro-1H-cyclopropa[3,4]cyclopenta[1,2-c]pyrazol-1-yl)acetamide], for which the EC50 in series [1] is 0.31 nM. For the same compound, the CC50 at 4 days in series [2] was over 100 nM.
In the case of `O=C(Cn1nc(C(F)F)c2c1C(F)(F)[C@@H]1C[C@H]21)N[C@@H](Cc1cc(F)cc(F)c1)c1nc(-c2ncccn2)cc(=O)n1-c1ccc(Cl)c2c(NS(=O)(=O)C3CC3)nn(CC(F)F)c12` (atropisomer, axis not shown; (aR)) [Example 48, N-((S)-1-((1′P)-1′-(4-chloro-3-(cyclopropanesulfonamido)-1-(2,2-difluoroethyl)-1H-indazol-7-yl)-6′-oxo-1′,6′-dihydro-[2,4′-bipyrimidin]-2′-yl)-2-(3,5-difluorophenyl)ethyl)-2-((3bS,4aR)-3-(difluoromethyl)-5,5-difluoro-3b,4,4a,5-tetrahydro-1H-cyclopropa[3,4]cyclopenta[1,2-c]pyrazol-1-yl)acetamide], the EC50 in series [1] came out at 0.18 nM. Besides, the CC50 at 4 days in series [2] is over 100 nM.
As to `CCc1cnc(-c2cc(=O)n(-c3ccc(Cl)c4c(NS(C)(=O)=O)nn(C)c34)c([C@H](Cc3cc(F)cc(F)c3)NC(=O)Cn3nc(C(F)F)c4c3C(F)(F)[C@@H]3C[C@H]43)n2)nc1` (atropisomer, axis not shown; (aR)) [Example 12, N-((S)-1-((1′P)-1′-(4-chloro-1-methyl-3-(methylsulfonamido)-1H-indazol-7-yl)-5-ethyl-6′-oxo-1′,6′-dihydro-[2,4′-bipyrimidin]-2′-yl)-2-(3,5-difluorophenyl)ethyl)-2-((3bS,4aR)-3-(difluoromethyl)-5,5-difluoro-3b,4,4a,5-tetrahydro-1H-cyclopropa[3,4]cyclopenta[1,2-c]pyrazol-1-yl)acetamide], in series [1], the EC50 was found to be 0.019 nM. This compound came in with a CC50 at 4 days in series [2] of over 100 nM.
The matching figures for `CC(F)(F)Cn1ccc(-c2cc(=O)n(-c3ccc(Cl)c4c(NS(=O)(=O)C5CC5)nn(CC(F)F)c34)c([C@H](Cc3cc(F)cc(F)c3)NC(=O)Cn3nc(C(F)F)c4c3C(F)(F)[C@@H]3C[C@H]43)n2)n1` (atropisomer, axis not shown; (P)) [Example 42, N-((S)-1-((1P)-1-(4-chloro-3-(cyclopropanesulfonamido)-1-(2,2-difluoroethyl)-1H-indazol-7-yl)-4-(1-(2,2-difluoropropyl)-1H-pyrazol-3-yl)-6-oxo-1,6-dihydropyrimidin-2-yl)-2-(3,5-difluorophenyl)ethyl)-2-((3bS,4aR)-3-(difluoromethyl)-5,5-difluoro-3b,4,4a,5-tetrahydro-1H-cyclopropa[3,4]cyclopenta[1,2-c]pyrazol-1-yl)acetamide]: 0.21 nM and over 100 nM.
The matching figures for `Cn1nc(NS(C)(=O)=O)c2c(Cl)ccc(-n3c([C@H](Cc4cc(F)cc(F)c4)NC(=O)Cn4nc(C(F)F)c5c4C(F)(F)[C@@H]4C[C@H]54)nc(-c4ccn(CC(C)(F)F)n4)cc3=O)c21` (atropisomer, axis not shown; (P)) [Example 8, N-((S)-1-((1P)-1-(4-chloro-1-methyl-3-(methylsulfonamido)-1H-indazol-7-yl)-4-(1-(2,2-difluoropropyl)-1H-pyrazol-3-yl)-6-oxo-1,6-dihydropyrimidin-2-yl)-2-(3,5-difluorophenyl)ethyl)-2-((3bS,4aR)-3-(difluoromethyl)-5,5-difluoro-3b,4,4a,5-tetrahydro-1H-cyclopropa[3,4]cyclopenta[1,2-c]pyrazol-1-yl)acetamide]: 0.28 nM and over 100 nM.

The values above are taken from patent publication US20220409619A1, “INHIBITORS OF HUMAN IMMUNODEFICIENCY VIRUS REPLICATION” (VIIV HEALTHCARE UK (No. 5) LIMITED, priority 2019, published 2022).
